Data as given in US4791215A, “Derivatives of glutamic acid and aspartic acid” (priority 1984, dated 1988).
“And” between values parts separate entries of the source, which are not always exact repeats. Equal values may be shown once.

How the values were obtained:
[1] = system: enkephalinamide (DALA) analgesia; assay: Potentiation of DALA (enkephalinamide) analgesia, i.c.v., Tail Flick Test (Experiment 4); format: in vivo, rats; design: scale not given here
From the text: Experiment No. 4: Potentiation of the analgesic activities of enkephalins induced by some of the compounds of the invention. […]

[2] = system: intestinal transit of carbon; assay: Anti-spastic activity, vegetable carbon intestinal transit test; format: in vivo, mice; conditions: Mus musculus, ip; read-out: antispastic activity ED50 (dose reducing intestinal transit of carbon by 50%)
From the text: The anti-spastic activity which the present compounds exert on the entire digestive system is also notable. Measured in mice with the vegetable carbon test (rate of transit through the stomach and the intestine), this activity is illustrated in the following table.
claimed administered intraperitoneally in mice. Values
expressed as the ED 50 in mg/kg, that is the dose which
reduces the intestinal transit of carbon by 50%

biliary flow = assay: Biliary flow (choleretic activity); format: in vivo, rat; conditions: for ED50: Rattus norvegicus, iv, average over 2 hours, read-out: ED50 (dose causing 50% increase in biliary flow)
In short: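 In urethane-anaesthetised rats with bile duct cannulated, bile collected 1 h before and 2 h after intravenous compound dosing. Samples weighed at 30 minute intervals; 0.5 ml physiological solution given every 30 minutes to prevent dehydration.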

[3] = system: CCK-8 induced contraction of guinea pig gall bladder; assay: Anti-CCK-8 activity on gall bladders in situ; format: in vivo; conditions: for percentage inhibition of contracting effect of CCK-8: single experiments; for ED50: Cavia porcellus, iv, CCK-8 10 ng/kg i.v., read-out: ED50 (inhibition of 50% of contracting effect of CCK-8)
[4] = system: tolerance induced by morphine; assay: Antagonism to development of tolerance to repeated morphine HCl, Tail Flick Test (Experiment 5); conditions: compound 10 mg/kg + morphine 5 mg/kg i.p.
Method: Experiment No. 5: Antagonism of several products of the invention to the development of tolerance induced in rats by the repeated administration of morphine HCl.
Several of the compounds of the invention were examined to determine their possible capacity to antagonise the development of tolerance induced by morphine. Groups of 6 male rats having a weight of about 200-250 grams were used.
At intervals of 24 hours from the first treatment (time 0) each animal (except the control group treated physiologically) received 5 mg/kg of morphine hydrochloride i.p. together with 10 mg/kg i.p. of the compounds indicated (with the exception of the group treated solely with morphine).
The determination of the pain threshold was effected 15', 30', 45' and 60' from the treatment by the Tail Flick Test.

morphine analgesia = assay: Increase in analgesia of morphine, Tail Flick Test (Experiment 1); format: in vivo, rats; conditions: for percentage variation of latency of pain sensation / M (10-90) ± SE, mean percentage variation of latency: compound 10 mg/kg i.p. + morphine 2 mg/kg; for M (10-90) ± SE, mean percentage variation of latency: mean 10-90 min; for Power ratio with respect to morphine alone: rat, in vivo
In short: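 Non-fasted male rats (150-200 g); a tail point is exposed to a 75 °C heat source and latency to tail movement recorded, 8 s cut-off. Readings taken before and 10, 20, 30, 45, 60 and 90 min after analgesic treatment; percentage variation calculated per animal.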

[5] = DALA 10 + compound 0.003 μg/kg ICV, 10'
[6] = DALA 10 + compound 0.003 μg/kg ICV, 20'
[7] = DALA 10 + compound 0.003 μg/kg ICV, 30'
[8] = DALA 10 + compound 0.003 μg/kg ICV, 45'
[9] = DALA 10 + compound 0.003 μg/kg ICV, 60'
[10] = DALA 10 + compound 0.003 μg/kg ICV, 90'
[11] = DALA 10 + compound 0.003 μg/kg ICV
[12] = DALA 10 + compound 0.01 μg/kg ICV, 10'
[13] = DALA 10 + compound 0.01 μg/kg ICV, 20'
[14] = DALA 10 + compound 0.01 μg/kg ICV, 30'
[15] = DALA 10 + compound 0.01 μg/kg ICV, 45'
[16] = DALA 10 + compound 0.01 μg/kg ICV, 60'
[17] = DALA 10 + compound 0.01 μg/kg ICV, 90'
[18] = DALA 10 + compound 0.01 μg/kg ICV

## CCCN(CCC)C(=O)C(CCC(=O)O)NC(=O)c1ccc(C)c(C)c1 (centres unmarked) [Compound C-30]
[1]; DALA 10 + compound 0.01 mg/kg (ICV), 10', 0.01 mg/kg
  analgesic activity, Tail Flick: 58 and 59.1
[1]; DALA 10 + compound 0.01 mg/kg (ICV), 20', 0.01 mg/kg
  analgesic activity, Tail Flick: 60.8 and 67.8
[1]; DALA 10 + compound 0.01 mg/kg (ICV), 30', 0.01 mg/kg
  analgesic activity, Tail Flick: 77.0 and 86.0
[1]; DALA 10 + compound 0.01 mg/kg (ICV), 45', 0.01 mg/kg
  analgesic activity, Tail Flick: 66.4 and 83.3
[1]; DALA 10 + compound 0.01 mg/kg (ICV), 60', 0.01 mg/kg
  analgesic activity, Tail Flick: 48.8 and 83.3
[1]; DALA 10 + compound 0.01 mg/kg (ICV), 90', 0.01 mg/kg
  analgesic activity, Tail Flick: 45.0 and 55.1
[1]; DALA 10 + compound 0.01 mg/kg (ICV), 0.01 mg/kg
  MEAN analgesic activity, Tail Flick: 59.33 and 73.26
[2]
  ED50: 77.7 mg/kg
Biliary flow; 12.5 mg/kg i.v.
  % increase in biliary flow with respect to controls: +33.7%
Biliary flow; 25 mg/kg i.v.
  % increase in biliary flow with respect to controls: +60.2%
Biliary flow; 50 mg/kg i.v.
  % increase in biliary flow with respect to controls: +121.2%
Biliary flow; 100 mg/kg i.v.
  % increase in biliary flow with respect to controls: +197.8%
Biliary flow
  ED50: 18.5 mg/kg
[3]; 30 mg/kg i.v.
  percentage inhibition of contracting effect of CCK-8: 82.1% and 92.5% and 79.5%
[3]
  ED50: 13.8 mg/kg
[4]; 24 h
  percentage variation in latency time (Effect %): 66.53% and 67.27%
[4]; 48 h
  percentage variation in latency time (Effect %): 50.61% and 67.31%
[4]; 72 h
  percentage variation in latency time (Effect %): 47.53% and 56.04%
[4]; 96 h
  percentage variation in latency time (Effect %): 29.65% and 49.48%
[4]; 120 h
  percentage variation in latency time (Effect %): 34.24% and 34.34%
[4]; 144 h
  percentage variation in latency time (Effect %): 26.97% and 27.50%
[4]; time 0
  percentage variation in latency time (Effect %): 74.51% and 44.52%
Morphine analgesia; 10'
  percentage variation of latency of pain sensation: 69.9 ± 16%
Morphine analgesia; 20'
  percentage variation of latency of pain sensation: 100.0 ± 0%
Morphine analgesia; 30'
  percentage variation of latency of pain sensation: 95.2 ± 4.8%
Morphine analgesia; 45'
  percentage variation of latency of pain sensation: 91.8 ± 8%
Morphine analgesia; 60'
  percentage variation of latency of pain sensation: 100%
Morphine analgesia; 90'
  percentage variation of latency of pain sensation: 100.0 ± 0%
Morphine analgesia
  M (10-90) ± SE, mean percentage variation of latency: 92.8 ± 12%
  Power ratio with respect to morphine alone: 3.11

## CCCCN(CCCC)C(=O)CCC(NC(=O)c1ccc(Cl)c(Cl)c1)C(=O)O [Compound D-2]
[1]; [5]
  analgesic activity, Tail Flick: 34.9
[1]; [6]
  analgesic activity, Tail Flick: 54.0
[1]; [7]
  analgesic activity, Tail Flick: 45.5
[1]; [8]
  analgesic activity, Tail Flick: 27.5
[1]; [9]
  analgesic activity, Tail Flick: 23.5
[1]; [10]
  analgesic activity, Tail Flick: 14.9
[1]; [11]
  MEAN analgesic activity, Tail Flick: 33.4
[1]; [12]
  analgesic activity, Tail Flick: 38.2
[1]; [13]
  analgesic activity, Tail Flick: 53.7
[1]; [14]
  analgesic activity, Tail Flick: 52.6
[1]; [15]
  analgesic activity, Tail Flick: 38.5
[1]; [16]
  analgesic activity, Tail Flick: 33.7
[1]; [17]
  analgesic activity, Tail Flick: 26.3
[1]; [18]
  MEAN analgesic activity, Tail Flick: 40.5
[2]
  ED50: 50.7 mg/kg
[4]; 24 h
  percentage variation in latency time (Effect %): 45.73%
[4]; 48 h
  percentage variation in latency time (Effect %): 59.50%
[4]; 72 h
  percentage variation in latency time (Effect %): 51.52%
[4]; 96 h
  percentage variation in latency time (Effect %): 43.40%
[4]; 120 h
  percentage variation in latency time (Effect %): 37.60%
[4]; 144 h
  percentage variation in latency time (Effect %): 21.43%
[4]; 168 h
  percentage variation in latency time (Effect %): 29.75%
[4]; time 0
  percentage variation in latency time (Effect %): 74.14%
Morphine analgesia; 10'
  percentage variation of latency of pain sensation: 85.6 ± 14.0%
Morphine analgesia; 20'
  percentage variation of latency of pain sensation: 98.1 ± 2.0%
Morphine analgesia; 30'
  percentage variation of latency of pain sensation: 95.9 ± 4.0%
Morphine analgesia; 45'
  percentage variation of latency of pain sensation: 96.6 ± 3.0%
Morphine analgesia; 60'
  percentage variation of latency of pain sensation: 95.5 ± 3.0%
Morphine analgesia; 90'
  percentage variation of latency of pain sensation: 87.5 ± 6.0%
Morphine analgesia
  M (10-90) ± SE, mean percentage variation of latency: 93.2 ± 5.3%
  Power ratio with respect to morphine alone: 3.12

## CCCN(CCC)C(=O)C(CCC(=O)O)NC(=O)c1ccc(C(C)C)cc1 (centres unmarked) [Compound C-36]
[2]
  ED50: 208 mg/kg
Biliary flow; 12.5 mg/kg i.v.
  % increase in biliary flow with respect to controls: +15.5%
Biliary flow; 25 mg/kg i.v.
  % increase in biliary flow with respect to controls: +48.5%
Biliary flow; 100 mg/kg i.v.
  % increase in biliary flow with respect to controls: +215.8%
Biliary flow
  ED50: 26.8 mg/kg
[3]; 10 mg/kg i.v.
  percentage inhibition of contracting effect of CCK-8: 64.8% and 71.6% and 63.3% and 78.7%
[3]; 30 mg/kg i.v.
  percentage inhibition of contracting effect of CCK-8: 100%
[3]
  ED50: 5.1 mg/kg
Morphine analgesia; 10'
  percentage variation of latency of pain sensation: 8.6%
Morphine analgesia; 20'
  percentage variation of latency of pain sensation: 100.0 ± 0%
Morphine analgesia; 30'
  percentage variation of latency of pain sensation: 96.9 ± 3%
Morphine analgesia; 45'
  percentage variation of latency of pain sensation: 90.0 ± 10%
Morphine analgesia; 60'
  percentage variation of latency of pain sensation: 96.9 ± 3%
Morphine analgesia; 90'
  percentage variation of latency of pain sensation: 92.4 ± 25%
Morphine analgesia
  M (10-90) ± SE, mean percentage variation of latency: 80.8 ± 36%
  Power ratio with respect to morphine alone: 2.71

## CCCCCN(CCCCC)C(=O)C(CCC(=O)O)NC(=O)c1ccc(Cl)c(Cl)c1 (centres unmarked) [Compound C-7]
[2]
  ED50: 16.8 mg/kg
[3]; 0.003 mg/kg i.v.
  percentage inhibition of contracting effect of CCK-8: -10.6%
[3]; 0.03 mg/kg i.v.
  percentage inhibition of contracting effect of CCK-8: -62.1% and -57.0% and -59.2%
[3]; 0.1 mg/kg
  block of gall bladder contractions induced by CCK-8: can block gall bladder contractions induced by CCK-8
[3]
  ED50: 0.02 mg/kg
Morphine analgesia; 10'
  percentage variation of latency of pain sensation: 67.9 ± 14.3%
Morphine analgesia; 20'
  percentage variation of latency of pain sensation: 71.5 ± 17.6%
Morphine analgesia; 30'
  percentage variation of latency of pain sensation: 79.4%
Morphine analgesia; 45'
  percentage variation of latency of pain sensation: 84.6 ± 10.5%
Morphine analgesia; 60'
  percentage variation of latency of pain sensation: 92.9 ± 4.1%
Morphine analgesia; 90'
  percentage variation of latency of pain sensation: 72.6 ± 7.0%
Morphine analgesia
  M (10-90) ± SE, mean percentage variation of latency: 78.2 ± 9.4%
  Power ratio with respect to morphine alone: 2.62

## CCCN(CCC)C(=O)C(CCC(=O)O)NC(=O)c1cccc(C#N)c1 (centres unmarked) [Compound C-20]
[1]; [5]
  analgesic activity, Tail Flick: 5.7
[1]; [6]
  analgesic activity, Tail Flick: 44.6
[1]; [7]
  analgesic activity, Tail Flick: 32.3
[1]; [8]
  analgesic activity, Tail Flick: 30.1
[1]; [9]
  analgesic activity, Tail Flick: 24.5
[1]; [10]
  analgesic activity, Tail Flick: 72.
[1]; [11]
  MEAN analgesic activity, Tail Flick: 24.1
[1]; [12]
  analgesic activity, Tail Flick: 16.5
[1]; [13]
  analgesic activity, Tail Flick: 62.5
[1]; [14]
  analgesic activity, Tail Flick: 64.1
[1]; [15]
  analgesic activity, Tail Flick: 45.4
[1]; [16]
  analgesic activity, Tail Flick: 45.3
[1]; [17]
  analgesic activity, Tail Flick: 16.3
[1]; [18]
  MEAN analgesic activity, Tail Flick: 41.7
[2]
  ED50: 77.5 mg/kg
Biliary flow; 12.5 mg/kg i.v.
  % increase in biliary flow with respect to controls: +48.5%
Biliary flow; 25 mg/kg i.v.
  % increase in biliary flow with respect to controls: +63.9%
Biliary flow; 50 mg/kg i.v.
  % increase in biliary flow with respect to controls: +108.0%
Biliary flow
  ED50: 19.4 mg/kg
[4]; 24 h
  percentage variation in latency time (Effect %): 53.36%
[4]; 48 h
  percentage variation in latency time (Effect %): 48.17%
[4]; 72 h
  percentage variation in latency time (Effect %): 53.67%
[4]; 96 h
  percentage variation in latency time (Effect %): 31.56%
[4]; 120 h
  percentage variation in latency time (Effect %): 41.67%
[4]; 144 h
  percentage variation in latency time (Effect %): 14.48%
[4]; 168 h
  percentage variation in latency time (Effect %): 13.75%
[4]; time 0
  percentage variation in latency time (Effect %): 72.15%
Morphine analgesia; 10'
  percentage variation of latency of pain sensation: 53.8%
Morphine analgesia; 20'
  percentage variation of latency of pain sensation: 85.7 ± 10.0%
Morphine analgesia; 30'
  percentage variation of latency of pain sensation: 92.0 ± 8.0%
Morphine analgesia; 45'
  percentage variation of latency of pain sensation: 99.1 ± 1.0%
Morphine analgesia; 60'
  percentage variation of latency of pain sensation: 91.2 ± 9.0%
Morphine analgesia; 90'
  percentage variation of latency of pain sensation: 51.2%
Morphine analgesia
  M (10-90) ± SE, mean percentage variation of latency: 78.8 ± 21.0%
  Power ratio with respect to morphine alone: 2.64
